Laboratory results reported in patent US11890286B2, “Methods and compositions for treating cancer” (THE UNIVERSITY OF CHICAGO, priority 2018, dated 2024).

How the values were obtained:
BM1 cells [1] = assay: 3D proliferation of BM1 cells (total cell number in the invasion assay); type: cell-based, human; settings: BM1, 10 μM and above
Description: (§1) The chemotaxis module in IncuCyte® can accurately count the number of cell in the top chamber and the bottom chamber of the ClearView plates separately. Invasive capability of the cells in the presence of various small molecule inhibitors was measured as the percentage of cells that moved to the bottom chamber over the period of 72 hours. The formula used for this calculation is (number of cells in the bottom chamber)/(number of cells in the bottom chamber+number of cells in the top chamber)×100. The total number of cells in the top and bottom chambers is used as a readout of proliferation, which was important for determining drug combinations that blocked invasion without affecting growth properties of the cells.
3D Cultures: For 3D proliferation experiments, we used Cultrex® 3D Basement Membrane Matrix, Reduced Growth Factor (Trevigen, Cat. No. 3445-005-01, Lot No 37353J16, Lot concentration: 15.51 mg/ml, referred to as BME). For all experiments, the cells in growth media were mixed with BME at a final concentration of 2 mg/ml. For 3D proliferation assays, 100 μl of the cell/BME mixture was dispensed into each well of a 96-well plate. Upon solidification of BME, 100 μl of growth media was added on top of the solidified gel. […] The growth of the cells was monitored in IncuCyte® Zoom or S3 models for the indicated duration of time.

orthotopic LMB tumors = assay: Primary orthotopic LMB tumor growth in syngeneic mice; type: in vivo, mouse; settings: single inhibitor; for primary LMB tumor growth determined by final tumor weight: syngeneic model, 10 mg/kg/day or lower
Description: For primary tumor growth experiments, 2×10^6 BM1 cells, 5×10^5 LMB cells, or 1×10^6 […] cells were injected orthotopically near the mammary fat pad of athymic nude, C57B1/6, or C3-1-TAg-REAR mice, respectively. Tumor growth was monitored over time by caliper measurements of the width and length of tumors. Tumor volumes were calculated with the formula: For the in vivo studies involving MAPK inhibitors and the 4-drug MAPKi combination treatment, small molecule inhibitors were resuspended under sterile conditions. […] No. 91893)+50% saline. JNK inhibitor SP600125 and MEK inhibitor Trametinib were diluted in corn oil (Sigma, Cat. No. C8267). For the 4-drug combinatorial treatment, all inhibitors were dissolved in their own solvent at 4×higher concentration then the desired final concentration. Then, SB203580 and URMC-099 were mixed at a 1:1 ratio, reducing the concentration for each drug down to 2×. Similarly, SP600125 and Trametinib were mixed at a 1:1 ratio. These dual combination solutions were then filtered through 0.22 μm PES filter syringes to assure sterility. Each mouse received 50 μl of each dual combination on the same day, resulting in a total of 100 μl of drug mix (2 injections per mouse) with each drug at their desired 1×final concentration. […] All injections were intraperitoneal. For the tumor growth experiments with the MAPK inhibitors, tumors were allowed to reach the size 50-100 mm^3 size before the MAPKi treatment began. Then, the mice were treated with the respective MAPKi treatment (or the control) for up to 3 weeks. Tumor size was monitored twice a week with a caliper. For the metastasis assays, the tumor cells were treated with the 4-drug MAPKi combination at the in vitro doses for 24 hours prior to injections to allow for anti-metastatic reprogramming of the cells. Homing to metastatic tissues upon intracardiac or tail vein injections can take up to 48 hours. […] After the inoculation, the mice were treated with the inhibitors daily for up to 3 weeks until the experimental endpoints discussed above were reached.

[2] = tested on: BM1 cells (BM1-NucLight Red); assay: High-throughput chemotactic invasion assay of nuclear-labeled BM1 cells; type: cell-based, human; settings: 72 hours, single drug
Description: High-throughput chemotactic invasion assays: For testing anti-invasive drug combinations, IncuCyte® ClearView 96-Well Chemotaxis plates (Essen BioScience) were used. 2000 cells per well were embedded in 2 mg/ml BME and plated onto the chemotaxis plate following the manufacturer's instructions. Media containing 2% FBS was used in both top and bottom chambers to maintain cell viability over 72 hours or more. 200 ng/ml human EGF (Bio-Techne, 236-EG-01M) was used as the chemotactic agent in the bottom chamber, and the control wells only had the vehicle for the chemotactic agent.
This assay is more accurate when nuclear-labeled cells are used. Therefore, BM1-mKate2 (nuclear red) cells were generated using IncuCyte® NucLight Red Lentivirus Reagent (Essen BioScience, Cat. No. 4478) following the manufacturer's instructions. After transduction, cells with the highest nuclear red signal intensity (top 25%) were sorted by FACS.
as §1

JNK = assay: Signaling study in vitro, immunoblot of JNK phosphorylation in TNBC cell lines; type: cell-based, human and mouse
Description: (§2) Signaling studies in vitro: In order to investigate the changes in stress kinase signaling upon stress in the presence of RKIP, or small molecule inhibitors of the MAPKs, cells were plated at sub-confluence. Once they reached roughly 70% confluence, they were starved overnight (16-24 hours) in serum-free media, and then induced with either anisomycin (Sigma-Aldrich, Cat. No. A9789) at 25 ng/ml or 100 ng/ml final concentration, or by 10% serum for 30 minutes to activate MAPK pathways. In studies with small molecule inhibitors of the MAPK pathway, all inhibitors were re-suspended in DMSO and used at indicated concentrations. The cells were pre-treated with the inhibitors in serum-free media for 30 minutes after overnight starvation, immediately before induction with anisomycin or serum for 30 minutes. In this case, the inducing agent was directly added to the pre-treatment media that already had the inhibitors, or the pre-treatment media was replaced by fresh media containing the inducer and the inhibitors. […]
(§3) Protein isolation and western blots: Cultured cells were washed with cold PBS and lysed in RIPA buffer with protease inhibitors (Millipore Sigma, Cat. No. 539134) and phosphatase inhibitors (GoldBio, Cat. No. GB-450). […] Supernatant was collected and the protein concentration measured using the Bradford assay. […]

MB436 cells = assay: Chemotactic invasion assay, MB436 cells; type: cell-based, human; settings: increasing doses, single drug
Description: (§4) Boyden Chamber Invasion Assay: Each Boyden chamber membrane (Fisher Scientific, Cat. No. 353097) was coated with a thin layer of BME (200 μl of 0.25 mg/ml stock, or total of 50 μg of BME per membrane) and incubated at 37° C. for 1 hour. Cells were trypsinized and centrifuged at 500×g for 5 minutes followed by two rounds of PBS washes to remove remaining serum-containing media. Then, the cells were resuspended in serum-free media and diluted to the desired concentration for plating onto the Boyden chambers. Each Boyden chamber received 20,000-100,000 cells in 300 μl serum-free media, depending on the cell line. 10% serum was used as the chemoattractant for these assays. For the experiments testing the effect of MAPK inhibitors on invasion, the cells were resuspended in drug-containing serum-free media immediately. After 16-24 hours, the membranes were stained with Calcein AM (Fisher Scientific, Cat. No. 354217) for 1 hour at 37° C. in the dark to stain for live cells. Cells that are in the top chamber were removed from the membrane with a wet cotton swab. Cells in the bottom chamber were dissociated from the membrane by incubating in cell dissociation buffer (Trevigen, Cultrex®, Cat. No. 3455-096-05) in a shaker at 37° C. for 1 hour. Calcein AM signal was measured in Perkin Elmer Victor X3 plate reader as a read-out of invaded cells.

p38 = assay: Signaling study in vitro, immunoblot of p38 phosphorylation in TNBC cell lines; type: cell-based, human and mouse; settings: anisomycin-induced human cell lines (BM1, MB436)
Description: as §2, §3

BM1 cells [3] = assay: Chemotactic invasion assay, BM1 cells; type: cell-based, human; settings: increasing doses, single drug
Description: as §4

In the case of `O=C(O)c1ccc2c(c1)nc(Nc1cccc(Cl)c1)c1ccncc12` [CX-4945], the “effect on growth at the doses that blocked invasion” value (BM1 cells [1]) is reported as “growth-inhibitory”.

With `C[S+]([O-])c1ccc(-c2nc(-c3ccc(F)cc3)c(-c3ccncc3)[nH]2)cc1` (stereo not shown) [SB203580, 4-(4-Fluorophenyl)-2-(4-methylsulfinylphenyl)-5-(4-pyridyl)-1H-imidazole] the “primary LMB tumor growth determined by final tumor weight” value (orthotopic LMB tumors) was “do not affect primary LMB tumor growth”, the “minimal dose at which the proliferation rates were unaffected while the invasive capabilities of the cells were at least partially blocked” value (shortened to “minimal dose”) [2] was 1 µM and the “JNK activation upon p38 inhibition (crosstalk)” value (JNK; serum-induced, all four human and mouse TNBC cell lines) was “resulted in JNK activation”.

In the case of `Oc1c2ccccc2c2c3c(cccc13)N=N2` [SP600125, 1,9-Pyrazoloanthrone], the “minimal dose” value [2] is reported as 1 µM.

`CC(=O)Nc1cccc(-n2c(=O)n(C3CC3)c(=O)c3c(Nc4ccc(I)cc4F)n(C)c(=O)c(C)c32)c1` [Trametinib] was tested, and the “primary LMB tumor growth” value (orthotopic LMB tumors; doses below 1 mg/kg) was “no significant effect” and the “minimal dose” value [2] was 0.001 to 0.01 µM.

In the case of `CN1CCN(Cc2ccc(-c3cnc4[nH]cc(-c5ccc6[nH]ccc6c5)c4c3)cc2)CC1` [URMC-099, 3-(1H-indol-5-yl)-5-[4-[(4-methyl-1-piperazinyl)methyl]phenyl]-1H-pyrrolo[2,3-b]pyridine], the “primary LMB tumor growth determined by final tumor weight” value (orthotopic LMB tumors) is reported as “do not affect primary LMB tumor growth”, the “minimal dose” value [2] is reported as 0.01 to 0.05 µM and the JNK activation (JNK; anisomycin-induced human cell lines (BM1, MB436)) is reported as “decrease”. For the same molecule, the “invasion of MB436 cells” value (MB436 cells) was “decreased invasion”, the p38 activation (p38) was “decrease” and the “invasion of BM1 cells” value (BM1 cells [3]) was “decreased invasion”.
